Results: ChEMBL document CHEMBL1143788, “Trifunctional norrisolide probes for the study of Golgi vesiculation” (2007)
The source made the active and inactive calls. The calls are words filed in the database; no cut-off is given here.

What was measured:
NRK [1] = test: Effect on Golgi fragmentation in NRK cells for 60 mins; assay type: functional, Rattus norvegicus
NRK [2] = test: Effect on Golgi fragmentation in NRK cells at 30 uM for 60 mins; assay type: functional

## CC1(C)CCC[C@]2(C)[C@@H](OC(=O)c3cc(I)c(OCC4CO4)cc3OCC3CO3)CC[C@@H]12 (stereo not given in full)
NRK [1]
  Activity: >80%

## CC1(C)CCC[C@]2(C)[C@@H](OC(=O)c3ccc(OCCCNC(=O)CCCC[C@@H]4SC[C@@H]5NC(=O)N[C@@H]54)cc3OCC3CO3)CC[C@@H]12 (stereo not given in full)
NRK [1]
  Activity: <10%

## CC1(C)CCC[C@]2(C)[C@@H](OC(=O)c3ccc(OCC4CO4)cc3OCC(=O)NCCOCCOCCNC(=O)CCCC[C@@H]3SC[C@@H]4NC(=O)N[C@@H]43)CC[C@@H]12 (stereo not given in full)
NRK [1]; Rattus norvegicus
  Activity: Active

## COC(=O)c1ccc(N=[N+]=[N-])cc1OCCCNC(=O)CCCC[C@@H]1SC[C@@H]2NC(=O)N[C@@H]21
NRK [2]; Rattus norvegicus
  Activity: inactive

## CC1(C)CCC[C@]2(C)[C@@H](OC(=O)c3ccc(N=[N+]=[N-])cc3OCCCNC(=O)CCCC[C@@H]3SC[C@@H]4NC(=O)N[C@@H]43)CC[C@@H]12
NRK [2]
  Activity: 50%
